Data on one substance can be found in patent publication US20060270618A1, “Novel pharmaceutical composition of interferon gamma or pirfenidone with molecular diagnostics for the improved treatment of interstitial lung diseases” (priority 2001, published 2006).

In assay [1] the test system is TGF-β1. The conditions noted are these: after six months of therapy; cited from earlier work.
Assay [2] concerns individuals suffering from IPF. Conditions: cited from earlier work.
For assay [3], the system named is patient with histologically proven UIP. Description: Single patient with histologically proven UIP, CMV pretreatment then interferon gamma (FIG. 1). The class given is in vivo, human. The conditions noted are these: failure of immunosuppressive treatment, gene transcription analysis. An excerpt:
FIG. 1: FIG. 1 depicts the total lung capacity (TLC), the partial pressure of arterial oxygen (PaO2), and the forced vital capacity (FVC) of a patient with histologically proven UIP (open lung biopsy) and failure of immunosuppressive treatment treated with interferon gamma. FIG. 1b) depicts the total lung capacity (TLC), the partial pressure of arterial oxygen (PaO2), and the forced vital capacity (FVC) of the same patient with histologically proven UIP (open lung biopsy) and failure of immunosuppressive treatment between time #l and time #2.

Assay [4] deals with patients suffering from severe interstitial lung disease (ILD). Kind of assay: Therapy of ILD/IPF patients: gene expression analysis followed by interferon gamma. The class given is in vivo, human. An excerpt:
Biopsies were taken from patients suffering from severe interstitial lung disease (ILD), after […] was given, using the surgical method of bronchoscopy. Obtained tissue probes were stored and processed for isolation of total RNA in RNAlater™ (patent pending), an aqueous, non-toxic tissue storage reagent that stabilizes and protects cellular RNA in intact, unfrozen tissue samples.
Analysis of Infectious agents in biopsies. As patients with ILD repeatedly suffer from inflammations, biopsied material was tested for the presence of infectious agents. Most dominant was the observation of underlying Herpes virus infections (treated with Ganciclovir) and various bacterial infections (treated with various antibiotics), or few fungal infections.
Therapy. Therapy with interferon gamma was only started after successful pretreatment of the underlying infections and the assessment of the gene expression of the endogenous disease signiture genes.

The subject of assay [5] is bleomycin-induced lung collagen fibrosis. The conditions noted are these: bleomycin mice; cited from earlier work.
Assay [6] has as its system CTGF. Conditions: after six months of therapy; cited from earlier work.
The mark [7] stands for this setting: after pretreatment of infections and gene expression analysis.

For “interferon gamma [naturally occurring glycoprotein cytokine, molecular weight about 17.000, also produced by recombinant techniques]”, in assay [1], the “transcription of TGF-β1” value is given as “significantly diminished”. Further, the lung function result in assay [2] is given as “improvement of lung function”. For the same substance, the “clinical outcome of the patient” value in assay [3] is on record as “stabilization of the patient”. Further, in assay [4] (setting [7]), the physical exertion capacity result is listed as “substantial increase” and the total lung capacity result is listed as “statistically highly significant increase”. The “partial pressure of arterial oxygen” value in assay [4] (at rest) is on record as “statistically significant increased”. In assay [4] (dose of 1.0-5.0 μg/kg body weight, 1-5 times per week, parenteral), the “effectiveness in the combination therapy” value is on record as “effective”. In assay [4] (human, in vivo), the disease symptoms result was “strong decrease”. Besides, in assay [4] (patients with IPF), the survival benefit result is reported as “significant survival benefit”. In addition, in assay [5], the amount of fibrosis entry is recorded as “reduction in the amount of fibrosis” and the “expression of TGF-β1” value is on record as “reduced expression”. Besides, the “transcription of CTGF” value in assay [6] is on record as “significantly diminished”.
